Reference: US7196110B2, “N-substituted tricyclic 3-aminopyrazoles as inhibitors for the treatment of cell proliferative disorders” (Janssen Phamaceutica N.V., priority 2002, dated 2007)
Each block holds one molecule with its values, some of them ahead of it.

Key:
H460 = test: Flow cytometry and trypan blue exclusion cell counting, H460; format: cell-based, human
DU145 (prostate cancer) = test: Clonogenicity assay, compound in combination with irradiation, DU145; format: cell-based, human
Description: (§1) Radiotherapy is a major therapeutic modality in treating many types of cancers including human prostate and ovarian cancers. The anti-proliferative activity of compounds within the scope of the invention was tested in combination with irradiation treatment.
(§2) Cells DU145 (prostate cancer) and MDAH2774 (ovarian cancer) were obtained from ATCC; growth media MEM medium (Mediatech, Herndon, Va.) was supplemented with 8% FBS, 5 U/ml penicillin and 50 μg/ml Streptomycin (Hyclone, Logan, Utah), 2 mM L-glutamine (Hyclone, Logan, Utah), 25 mM HEPES (Hyclone, Logan, Utah); McCoy's 5A medium (Mediatech, Herndon, Va.) was supplemented with 8% FBS, 50 U/ml penicillin and 50 μg/ml-Strep (Hyclone, Logan, Utah) and Glutamine 2 mM L-glutamine (Hyclone, Logan, Utah), ^137CS γ-source was a Gammacell 1000 Elite irradiator (MDS Nordion, Kanata, Ontario, Canada); DMSO; 1× PBS; Methanol; 0.25% Crystal Violet, and 60 mm tissue culture dishes.
(§3) DU145 or MDAH2774 cells at desired cell number were plated in early log phase on 60 mm dishes in MEM medium supplemented with 8% FBS, Penicillin, Streptomycin, L-glutamine, or McCoys medium supplemented with 8% FBS, Penicillin, Streptomycin and Glutamine, respectively. Cells were plated in triplicate. […] The final concentrations of the compound in the cell media ranged from 1 to 100 nM. After 24 h incubation with the test compound plates were split in two groups of equal size. The plates in the first group were irradiated with 7.3 Gy (plates containing DU145 cells) or 5.4 Gy (plates containing MDAH2774 cells) using a ^137Cs γ-source (dose rate 3.32 Gy/min). The second group of plates were treated identically but not irradiated. Cells were incubated for an additional 24 hours in medium containing test compound. Then, the cells were replenished with fresh compound-free identical medium and allowed to grow for an additional 11 days. Cells were then fixed with methanol, stained with 0.25% crystal violet, and the clones containing more than 50 cells were counted.
(§4) The activity appeared to be concentration-dependent with more dramatic effects achieved at 100 nM compound with radiation in either cell line.

[1] = tested on: human chronic myelogenous leukemia (CML) K562 cell line; test: Flow cytometry cell cycle phase distribution in leukemia cells; format: cell-based; conditions: K562, 24 hours
Description: (§5) The effect of compounds of the invention on cell proliferation in leukemia cells, in particular, the human chronic myelogenous leukemia (CML) K562 cell line, was tested using flow cytometry and trypan blue exclusion cell counting assays.
(§6) The human chronic myelogenous leukemia (CML) K562 cell line was obtained from American Type Culture Collection (ATCC) and cultured under specified conditions, as provided by ATCC. A Becton Dickinson FACSCalibur instrument was used for flow cytometry analyses. A CycleTEST PLUS DNA Reagent Kit (Cat. No. 340242, Becton Dickinson) was used in the study for cell staining. The standard operating procedure and a protocol for CycleTEST PLUS DNA Reagent Kit from Becton Dickinson have been followed to carry out the study. Briefly, flow cytometric analysis of the differentially stained CML K562 cell line was used to estimate the DNA content and cell cycle phase distribution of cells treated with various concentrations of the compound for 24 hours. […] Data analysis was carried out using the ModFit LT cell cycle data analysis program (Verity Software House, Topsham, Me. 04086, www.vsh.com). Cell viability test was performed using a Trypan Blue exclusion assay (Trypan Blue from Sigma, Cat No. T 0776) following procedures known to those skilled in the art.

[2] = tested on: human chronic myelogenous leukemia (CML) K562 cell line; test: Trypan blue exclusion cell counting assay in leukemia cells; format: cell-based
Description: as §5, §6

LoVo = test: Flow cytometry and trypan blue exclusion cell counting, LoVo; format: cell-based, human
[3] = tested on: MDAH2774 (ovarian cancer); test: Clonogenicity assay, compound in combination with irradiation, MDAH2774; format: cell-based, human
Description: as §1, §2, §3, §4

[4] = Rat pharmacokinetics study of pro-drugs, conversion to parent monitored by HPLC/MS/MS; format: in vivo; conditions: po, rat plasma, 10 mg/kg orally, read-out: Fast PK (0.5 h) conc. Prodrug
Description: Furthermore, pro-drugs have been administered orally to rats (10 mg/kg) in pharmacokinetics studies, and the conversion of pro-drugs to the parent compound was montitored by HPLC/MS/MS analyses. Parent compound or the glucuronide conjugates of the parent compound was detected in the rat plasma from the pharmacokinetics studies (Table G).

IC50 ([2]; Homo sapiens, K562, 24 hours treatment, read-out: IC50 on K562 cell proliferation): ~10 nM
Structure (SMILES): COc1cc2c(cc1OC)-c1n[nH]c(Nc3cccc(F)c3)c1C2 [Compound 14, (3-Fluoro-phenyl)-(6,7-dimethoxy-2,4-dihydro-indeno[1,2-c]pyrazol-3-yl)-amine]
cell cycle / growth effect in H460 cells (H460): blocked growth
colony formation inhibition with versus without radiation, DU145 (DU145 (prostate cancer); 7.3 Gy, compound 1 to 100 nM): the inhibitory effect was greater with radiation
No. of DU145 Clones (average of three plates) (DU145 (prostate cancer); W/o Radiation, 200 cells initially plated, compound 1 nM): 118
No. of DU145 Clones (average of three plates) (DU145 (prostate cancer); W/o Radiation, 200 cells initially plated, compound 3 nM): 108
No. of DU145 Clones (average of three plates) (DU145 (prostate cancer); W/o Radiation, 200 cells initially plated, compound 10 nM): 111
No. of DU145 Clones (average of three plates) (DU145 (prostate cancer); W/o Radiation, 200 cells initially plated, compound 30 nM): 100
No. of DU145 Clones (average of three plates) (DU145 (prostate cancer); W/o Radiation, 200 cells initially plated, compound 100 nM): 22
concentration from which marked inhibitory activity against colony formation was shown, DU145 (DU145 (prostate cancer); in the presence or absence of radiation (7.3 Gy)): ≥ 30 nM
No. of DU145 Clones (average of three plates) (DU145 (prostate cancer); w/Radiation (7.3 Gy), 1200 cells initially plated, compound 1 nM): 117
No. of DU145 Clones (average of three plates) (DU145 (prostate cancer); w/Radiation (7.3 Gy), 1200 cells initially plated, compound 3 nM): 100
No. of DU145 Clones (average of three plates) (DU145 (prostate cancer); w/Radiation (7.3 Gy), 1200 cells initially plated, compound 10 nM): 126
No. of DU145 Clones (average of three plates) (DU145 (prostate cancer); w/Radiation (7.3 Gy), 1200 cells initially plated, compound 30 nM): 57
No. of DU145 Clones (average of three plates) (DU145 (prostate cancer); w/Radiation (7.3 Gy), 1200 cells initially plated, compound 100 nM): 5
Percent of cells at G0–G1 ([1]; compound conc. 1 nM): 35%
Percent of cells at G2/M ([1]; compound conc. 1 nM): 11%
Percent of cells at S phase ([1]; compound conc. 1 nM): 53%
Percent of cells at G0–G1 ([1]; compound conc. 10 nM): 31%
Percent of cells at G2/M ([1]; compound conc. 10 nM): 28%
Percent of cells at S phase ([1]; compound conc. 10 nM): 41%
Percent of cells at G0–G1 ([1]; compound conc. 100 nM): 2%
Percent of cells at G2/M ([1]; compound conc. 100 nM): 98%
Percent of cells at S phase ([1]; compound conc. 100 nM): 0%
Percent of cells at G0–G1 ([1]; compound conc. 1000 nM): 3%
Percent of cells at G2/M ([1]; compound conc. 1000 nM): 93%
Percent of cells at S phase ([1]; compound conc. 1000 nM): 4%
Percent of cells at G0–G1 ([1]; compound conc. 10000 nM): 5%
Percent of cells at G2/M ([1]; compound conc. 10000 nM): 90%
Percent of cells at S phase ([1]; compound conc. 10000 nM): 5%
effect on cell proliferation in K562 cells ([2]; 24 hours treatment): concentration-dependent decrease of cell proliferation
cell cycle / growth effect in LoVo cells (LoVo): blocked growth
colony formation inhibition with versus without radiation, MDAH2774 ([3]; 5.4 Gy, compound 1 to 100 nM): the inhibitory effect was greater with radiation
concentration from which marked inhibitory activity against colony formation was shown, MDAH2774 ([3]; in the presence or absence of radiation (5.4 Gy)): ≥ 30 nM
No. of MDAH2774 Clones (average of three plates) ([3]; w/Radiation (5.4 Gy), 1000 cells initially plated, compound 1 nM): 121
No. of MDAH2774 Clones (average of three plates) ([3]; w/Radiation (5.4 Gy), 1000 cells initially plated, compound 3 nM): 125
No. of MDAH2774 Clones (average of three plates) ([3]; w/Radiation (5.4 Gy), 1000 cells initially plated, compound 10 nM): 121
No. of MDAH2774 Clones (average of three plates) ([3]; w/Radiation (5.4 Gy), 1000 cells initially plated, compound 30 nM): 8
No. of MDAH2774 Clones (average of three plates) ([3]; w/Radiation (5.4 Gy), 1000 cells initially plated, compound 100 nM): 3
No. of MDAH2774 Clones (average of three plates) ([3]; w/o Radiation, 200 cells initially plated, compound 1 nM): 98
No. of MDAH2774 Clones (average of three plates) ([3]; w/o Radiation, 200 cells initially plated, compound 3 nM): 96
No. of MDAH2774 Clones (average of three plates) ([3]; w/o Radiation, 200 cells initially plated, compound 10 nM): 110
No. of MDAH2774 Clones (average of three plates) ([3]; w/o Radiation, 200 cells initially plated, compound 30 nM): 35
No. of MDAH2774 Clones (average of three plates) ([3]; w/o Radiation, 200 cells initially plated, compound 100 nM): 8

Structure (SMILES): COc1cc2c(cc1OC)-c1c(c(Nc3cccc(F)c3)nn1C(=O)CO)C2 [Compound 432, 1-[3-(3-Fluoro-phenylamino)-6,7-dimethoxy-4H-indeno[1,2-c]pyrazol-1-yl]-2-hydroxy-ethanone]
concentration at 0.5 h [4]: 80 nM
